In US20260176320A1, “MODULATORS OF G-PROTEIN COUPLED RECEPTORS” (priority 2018, published 2026):
Where two headings read alike, the source gives them in different places. Square brackets hold non-standard residues; d marks the D form. Peptide text beside a SMILES is read from it. * marks the point of attachment. X1 = O=C(CSCC(=O)*)NCCN1C(=O)c2ccccc2C1=O; Aib = CC(C)(N)C(=O)O

Tests used:
Type in all cases: cell-based
[1] = target: T1, GLP-1R (Homo sapiens, UniProt P43220); experiment: HitHunter cAMP assay (GLP-1R); conditions: cAMP; for Emax: read-out: (Emax) GLP-1R
In short: (§1)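 Luminescent readout of cAMP by enzyme-fragment immunocompetition gave agonist concentration-response data. Cells (10,000/well) sat in HBSS buffer containing IBMX 625 μM, HEPES 10 mM and BSA 0.2%, exposed to agonist for 30 min at room temperature.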

[2] = target: T2, GIP-R (Homo sapiens, UniProt P48546); experiment: HitHunter cAMP assay (GIP-R); conditions: cAMP; for Emax: read-out: (Emax) GIP-R
T2 sequence (P48546 22-466): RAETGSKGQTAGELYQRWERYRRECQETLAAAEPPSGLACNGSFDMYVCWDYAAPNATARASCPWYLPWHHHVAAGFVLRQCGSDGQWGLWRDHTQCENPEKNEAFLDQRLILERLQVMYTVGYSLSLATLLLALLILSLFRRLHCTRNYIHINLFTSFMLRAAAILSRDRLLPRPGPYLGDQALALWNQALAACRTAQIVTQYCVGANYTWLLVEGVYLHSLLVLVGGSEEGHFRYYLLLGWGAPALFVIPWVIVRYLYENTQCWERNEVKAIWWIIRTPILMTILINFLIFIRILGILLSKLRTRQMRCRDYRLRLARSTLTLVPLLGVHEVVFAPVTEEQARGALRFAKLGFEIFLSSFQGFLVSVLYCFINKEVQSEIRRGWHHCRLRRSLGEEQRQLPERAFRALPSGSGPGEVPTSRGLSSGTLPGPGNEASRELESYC
In short: as §1

[3] = target: T1, GLP-1R; experiment: PathHunter β-arrestin assay
In short: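 Overnight-plated cells; 0.2% BSA medium; agonist 22-pt 2× dilution series, duplicate; 90 min, 37 °C/5% CO2; detection reagent 3 h RT, dark; luminescence.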

[4] = Table 3, read-out: EC50 GLP-1R/nM
[5] = Table 3A, read-out: EC50 GLP-1R/nM
[6] = Table 3, read-out: EC50 GIP-R/nM
[7] = Table 3A, read-out: EC50 GIP-R/nM
[8] = PathHunter β-arrestin assay, read-out: β-arrestin activity EC50

T1 sequence (P43220 24-463): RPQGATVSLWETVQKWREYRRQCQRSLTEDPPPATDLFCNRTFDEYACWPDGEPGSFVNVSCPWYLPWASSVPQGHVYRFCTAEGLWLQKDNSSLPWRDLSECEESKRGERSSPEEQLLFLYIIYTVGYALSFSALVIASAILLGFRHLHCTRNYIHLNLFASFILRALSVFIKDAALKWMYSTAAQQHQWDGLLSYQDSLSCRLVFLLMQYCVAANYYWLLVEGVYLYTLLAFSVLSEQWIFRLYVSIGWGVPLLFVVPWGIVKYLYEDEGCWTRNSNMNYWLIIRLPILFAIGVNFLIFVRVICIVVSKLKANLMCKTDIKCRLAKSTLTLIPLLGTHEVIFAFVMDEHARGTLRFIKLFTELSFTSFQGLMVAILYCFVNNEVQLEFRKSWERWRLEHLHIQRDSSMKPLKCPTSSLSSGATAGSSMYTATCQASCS

CC[C@H](C)[C@H](NC(=O)[C@H](CO)NC(=O)[C@H](Cc1ccc(O)cc1)NC(=O)[C@H](CC(=O)O)NC(=O)[C@H](CO)NC(=O)[C@@H](NC(=O)[C@H](Cc1ccccc1)NC(=O)[C@@H](NC(=O)CNC(=O)[C@H](CCC(=O)O)NC(=O)CSCC(=O)NCCN1C(=O)c2ccc(Cl)cc2C1=O)[C@@H](C)O)[C@@H](C)O)C(=O)N[C@@H](Cc1ccc(O)cc1)C(=O)N[C@@H](CC(C)C)C(=O)N[C@@H](CC(=O)O)C(=O)N[C@@H](CCCCN)C(=O)N[C@@H](CCC(N)=O)C(=O)N[C@@H](C)C(=O)N[C@@H](C)C(=O)NC(C)(C)C(=O)N[C@@H](CCC(=O)O)C(=O)N[C@@H](Cc1ccccc1)C(=O)N[C@H](C(=O)N[C@@H](CC(N)=O)C(=O)N[C@@H](Cc1c[nH]c2ccccc12)C(=O)N[C@@H](CC(C)C)C(=O)N[C@@H](CC(C)C)C(=O)N[C@@H](C)C(=O)NCC(=O)NCC(=O)N1CCC[C@H]1C(=O)N[C@@H](CO)C(=O)N[C@@H](CO)C(=O)NCC(=O)N[C@@H](C)C(=O)N1CCC[C@H]1C(=O)N1CCC[C@H]1C(=O)N1CCC[C@H]1C(=O)N[C@@H](CO)C(=O)N[C@@H](CCCCN)C(N)=O)C(C)C [Compound 161]
EC50 ([1]; EC50 GLP-1R/nM, Table 3): 10 to 100 nM
EC50 ([1]; EC50 GLP-1R/nM, Table 3A): 10 to 100 nM
Emax ([1]; Table 3): 89 to 101%
Emax ([1]; Table 3A): 89 to 101%
Emax ([2]; Table 3): 58 to 107%
Emax ([2]; Table 3A): 58 to 107%
EC50 ([2]; read-out: EC50 GIP-R/nM, Table 3): 1 to 100 nM
EC50 ([2]; read-out: EC50 GIP-R/nM, Table 3A): 1 to 100 nM
EC50 [3]: > 1000 nM

CCCCCCCCCCCCCCCC(=O)N[C@@H](CCC(=O)NCCCC[C@H](NC(=O)[C@H](CO)NC(=O)[C@@H]1CCCN1C(=O)[C@@H]1CCCN1C(=O)[C@@H]1CCCN1C(=O)[C@H](C)NC(=O)CNC(=O)[C@H](CO)NC(=O)[C@H](CO)NC(=O)[C@@H]1CCCN1C(=O)CNC(=O)CNC(=O)[C@H](C)NC(=O)[C@H](CC(C)C)NC(=O)[C@H](CC(C)C)NC(=O)[C@H](Cc1c[nH]c2ccccc12)NC(=O)[C@H](CC(N)=O)NC(=O)[C@@H](NC(=O)[C@H](Cc1ccccc1)NC(=O)[C@H](CCC(=O)O)NC(=O)C(C)(C)NC(=O)[C@H](C)NC(=O)[C@H](C)NC(=O)[C@H](CCC(N)=O)NC(=O)[C@H](CCCCN)NC(=O)[C@H](CC(=O)O)NC(=O)[C@H](CC(C)C)NC(=O)[C@H](Cc1ccc(O)cc1)NC(=O)[C@@H](NC(=O)[C@H](CO)NC(=O)[C@H](Cc1ccc(O)cc1)NC(=O)[C@H](CC(=O)O)NC(=O)[C@H](CO)NC(=O)[C@@H](NC(=O)[C@H](Cc1ccccc1)NC(=O)[C@@H](NC(=O)CNC(=O)[C@H](CCC(=O)O)NC(=O)CSCC(=O)N(C)CCN1CCCCC1=O)[C@@H](C)O)[C@@H](C)O)[C@@H](C)CC)C(C)C)C(N)=O)C(=O)O [Compound 17]
EC50 ([1]; EC50 GLP-1R/nM, Table 3): 0.1 to 1 nM
EC50 ([1]; EC50 GLP-1R/nM, Table 3A): 0.1 to 1 nM
Emax ([1]; Table 3): 92%
Emax ([1]; Table 3A): 92%
EC50 ([2]; EC50 GIP-R/nM, Table 3): 1 to 10 nM
EC50 ([2]; EC50 GIP-R/nM, Table 3A): 1 to 10 nM
Emax ([2]; Table 3): 55%
Emax ([2]; Table 3A): 55%
EC50 [3]: > 1000 nM

CC[C@H](C)[C@H](NC(=O)[C@H](CO)NC(=O)[C@H](Cc1ccc(O)cc1)NC(=O)[C@H](CC(=O)O)NC(=O)[C@H](CO)NC(=O)[C@@H](NC(=O)[C@H](Cc1ccccc1)NC(=O)[C@@H](NC(=O)CNC(=O)[C@H](CCC(=O)O)NC(=O)CCCNC(=O)CCN1C(=O)c2ccccc2C1=O)[C@@H](C)O)[C@@H](C)O)C(=O)N[C@@H](Cc1ccc(O)cc1)C(=O)N[C@@H](CC(C)C)C(=O)N[C@@H](CC(=O)O)C(=O)N[C@@H](CCCCN)C(=O)N[C@@H](CCC(N)=O)C(=O)N[C@@H](C)C(=O)N[C@@H](C)C(=O)NC(C)(C)C(=O)N[C@@H](CCC(=O)O)C(=O)N[C@@H](Cc1ccccc1)C(=O)N[C@H](C(=O)N[C@@H](CC(N)=O)C(=O)N[C@@H](Cc1c[nH]c2ccccc12)C(=O)N[C@@H](CC(C)C)C(=O)N[C@@H](CC(C)C)C(=O)N[C@@H](C)C(=O)NCC(=O)NCC(=O)N1CCC[C@H]1C(=O)N[C@@H](CO)C(=O)N[C@@H](CO)C(=O)NCC(=O)N[C@@H](C)C(=O)N1CCC[C@H]1C(=O)N1CCC[C@H]1C(=O)N1CCC[C@H]1C(=O)N[C@@H](CO)C(=O)N[C@@H](CCCCN)C(N)=O)C(C)C [Compound 154]
Emax ([1]; Table 3): 80%
EC50 [1, 4]: 1 to 10 nM
Emax ([1]; Table 3A): 80%
EC50 [1, 5]: 1 to 10 nM
Emax ([2]; Table 3): 78%
EC50 [2, 6]: 1 to 10 nM
Emax ([2]; Table 3A): 78%
EC50 [2, 7]: 1 to 10 nM
EC50 [3, 8]: > 1000 nM

CCCCCCCCCCCCCCCC(=O)N[C@@H](CCC(=O)NCCCC[C@H](NC(=O)[C@H](CO)NC(=O)[C@@H]1CCCN1C(=O)[C@@H]1CCCN1C(=O)[C@@H]1CCCN1C(=O)[C@H](C)NC(=O)CNC(=O)[C@H](CO)NC(=O)[C@H](CO)NC(=O)[C@@H]1CCCN1C(=O)CNC(=O)CNC(=O)[C@H](C)NC(=O)[C@H](CC(C)C)NC(=O)[C@H](CC(C)C)NC(=O)[C@H](Cc1c[nH]c2ccccc12)NC(=O)[C@H](CC(N)=O)NC(=O)[C@@H](NC(=O)[C@H](Cc1ccccc1)NC(=O)[C@H](CCC(=O)O)NC(=O)C(C)(C)NC(=O)[C@H](C)NC(=O)[C@H](C)NC(=O)[C@H](CCC(N)=O)NC(=O)[C@H](CCCCN)NC(=O)[C@H](CC(=O)O)NC(=O)[C@H](CC(C)C)NC(=O)[C@H](Cc1ccc(O)cc1)NC(=O)[C@@H](NC(=O)[C@H](CO)NC(=O)[C@H](Cc1ccc(O)cc1)NC(=O)[C@H](CC(=O)O)NC(=O)[C@H](CO)NC(=O)[C@@H](NC(=O)[C@H](Cc1ccccc1)NC(=O)[C@@H](NC(=O)CNC(=O)[C@H](CCC(=O)O)NC(=O)CSCC(=O)NCCN1C(=O)CC[C@@H]1CO)[C@@H](C)O)[C@@H](C)O)[C@@H](C)CC)C(C)C)C(N)=O)C(=O)O [Compound 43]
EC50 ([1]; EC50 GLP-1R/nM, Table 3): 0.1 to 1 nM
EC50 ([1]; EC50 GLP-1R/nM, Table 3A): 0.1 to 1 nM
Emax ([1]; Table 3): 93 to 97%
Emax ([1]; Table 3A): 93 to 97%
EC50 ([2]; EC50 GIP-R/nM, Table 3): 1 to 10 nM
EC50 ([2]; EC50 GIP-R/nM, Table 3A): 1 to 10 nM
Emax ([2]; Table 3): 60 to 73%
Emax ([2]; Table 3A): 60 to 73%
EC50 [3]: > 1000 nM

CC[C@H](C)[C@H](NC(=O)[C@H](CO)NC(=O)[C@H](Cc1ccc(O)cc1)NC(=O)[C@H](CC(=O)O)NC(=O)[C@H](CO)NC(=O)[C@@H](NC(=O)[C@H](Cc1ccccc1)NC(=O)[C@@H](NC(=O)CNC(=O)[C@H](CCC(=O)O)NC(=O)CSCC(=O)NCCN1C(=O)c2ccccc2C1=O)[C@@H](C)O)[C@@H](C)O)C(=O)N[C@@H](Cc1ccc(O)cc1)C(=O)N[C@@H](CC(C)C)C(=O)N[C@@H](CC(=O)O)C(=O)N[C@@H](CCCCN)C(=O)N[C@@H](CCC(N)=O)C(=O)N[C@@H](C)C(=O)N[C@@H](C)C(=O)NC(C)(C)C(=O)N[C@@H](CCC(=O)O)C(=O)N[C@@H](Cc1ccccc1)C(=O)N[C@H](C(=O)N[C@@H](CC(N)=O)C(=O)N[C@@H](Cc1c[nH]c2ccccc12)C(=O)N[C@@H](CC(C)C)C(=O)N[C@@H](CC(C)C)C(=O)N[C@@H](C)C(=O)NCC(=O)NCC(=O)N1CCC[C@H]1C(=O)N[C@@H](CO)C(=O)N[C@@H](CO)C(=O)NCC(=O)N[C@@H](C)C(=O)N1CCC[C@H]1C(=O)N1CCC[C@H]1C(=O)N1CCC[C@H]1C(=O)N[C@@H](CO)C(=O)N[C@@H](CCCCN)C(N)=O)[C@@H](C)CC [Compound 144] (X1-EGTFTSDYSIYLDKQAA[Aib]EFINWLLAGGPSSGAPPPSK-NH2)
EC50 ([1]; EC50 GLP-1R/nM, Table 3): 1 to 10 nM
EC50 ([1]; EC50 GLP-1R/nM, Table 3A): 1 to 10 nM
Emax ([1]; Table 3): 93 to 119%
Emax ([1]; Table 3A): 93 to 119%
EC50 ([2]; EC50 GIP-R/nM, Table 3): < 0.1 nM
EC50 ([2]; EC50 GIP-R/nM, Table 3A): < 0.1 nM
Emax ([2]; Table 3): 127 to 140%
Emax ([2]; Table 3A): 127 to 140%
EC50 [3]: > 1000 nM

CCCCCCCCCCCCCCCC(=O)N[C@@H](CCC(=O)NCCCC[C@H](NC(=O)[C@H](CO)NC(=O)[C@@H]1CCCN1C(=O)[C@@H]1CCCN1C(=O)[C@@H]1CCCN1C(=O)[C@H](C)NC(=O)CNC(=O)[C@H](CO)NC(=O)[C@H](CO)NC(=O)[C@@H]1CCCN1C(=O)CNC(=O)CNC(=O)[C@H](C)NC(=O)[C@H](CC(C)C)NC(=O)[C@H](CC(C)C)NC(=O)[C@H](Cc1c[nH]c2ccccc12)NC(=O)[C@H](CC(N)=O)NC(=O)[C@@H](NC(=O)[C@H](Cc1ccccc1)NC(=O)[C@H](CCC(=O)O)NC(=O)C(C)(C)NC(=O)[C@H](C)NC(=O)[C@H](C)NC(=O)[C@H](CCC(N)=O)NC(=O)[C@H](CCCCN)NC(=O)[C@H](CC(=O)O)NC(=O)[C@H](CC(C)C)NC(=O)[C@H](Cc1ccc(O)cc1)NC(=O)[C@@H](NC(=O)[C@H](CO)NC(=O)[C@H](Cc1ccc(O)cc1)NC(=O)[C@H](CC(=O)O)NC(=O)[C@H](CO)NC(=O)[C@@H](NC(=O)[C@H](Cc1ccccc1)NC(=O)[C@@H](NC(=O)CNC(=O)[C@H](CCC(=O)O)NC(=O)CSCC(=O)NCCN1CC(=O)N(C)CC1=O)[C@@H](C)O)[C@@H](C)O)[C@@H](C)CC)C(C)C)C(N)=O)C(=O)O [Compound 12]
Emax ([1]; Table 3): 91%
EC50 [1, 4]: 1 to 10 nM
Emax ([1]; Table 3A): 91%
EC50 [1, 5]: 1 to 10 nM
Emax ([2]; Table 3): 85%
EC50 [2, 6]: 0.1 to 1 nM
Emax ([2]; Table 3A): 85%
EC50 [2, 7]: 0.1 to 1 nM
EC50 [3, 8]: > 1000 nM
